In patent publication US4395552A, “Antimicrobial bis-imidazolo-pyridine compound” (The Purdue Frederick Company, priority 1980, dated 1983):
Where a name gives a salt, the structure may show the parent alone.

Key:
Escherichia coli = assay: minimum inhibitory concentration, antibacterial spectrum (Table I); type: cell-based; conditions: 32 P.P.M.
Method: (§1) The compounds listed in Table I below were tested for their antibacterial spectrum by the method of:
(§2) Silverblatt, F. and M. Turck, 1969. Antimicrobial Agents and Chemothreapy; 1968, p. 279-285.
(§3) Wallace, J. F., E. Atlas, D. M. Bear, N. K. Brown, H. Clark and M. Turk, 1971. Antimicrobial Agents and Chemotherapy; 1970, p. 223-266.

Staphylococcus aureus = assay: as above; type: cell-based; conditions: 32 P.P.M.
Method: as §1, §2, §3

Candida albicans = assay: minimum inhibitory concentration, antimicrobial spectrum (Table I); type: cell-based; conditions: 32 P.P.M.
Method: as §1, §2, §3

Pseudomonas aeruginosa = assay: minimum inhibitory concentration, antibacterial spectrum (Table I); type: cell-based; conditions: 32 P.P.M.
Method: as §1, §2, §3

[1] = LD50 upon oral administration to mice; conditions: mouse, in vivo
Streptococcus pyogenes = assay: minimum inhibitory concentration / in vitro spectrum of activity; type: cell-based; conditions: footnote of Table I
Method: as §1, §2, §3

Salmonella typhosa = assay: as above; type: cell-based; conditions: Salmonella enterica, read-out: minimum inhibitory concentration (MIC)
Method: as §1, §2, §3

Klebsiella pneumonia = assay: as above; type: cell-based; conditions: Klebsiella pneumoniae, footnote of Table I
Method: as §1, §2, §3

Diplococcus pneumoniae = assay: as above; type: cell-based; conditions: Streptococcus pneumoniae, footnote of Table I
Method: as §1, §2, §3

SMILES	MIC (Escherichia coli) [µg/mL]	MIC (Staphylococcus aureus) [µg/mL]	MIC (Pseudomonas aeruginosa) [µg/mL]	further results
N=C(NCCCCCNC(=N)Nc1nc2ccc(Cl)cc2[nH]1)Nc1nc2ccc(Cl)cc2[nH]1 [Compound 1075, N'-N"-bis-[2-(6-chlorobenzimidazole)]-2,8,diazanonane diimidamide dihydrochloride hydrate]	2	2	–	–
N=C(NCCCCCCNC(=N)Nc1nc2cc(Cl)c(S(N)(=O)=O)cc2[nH]1)Nc1nc2cc(Cl)c(S(N)(=O)=O)cc2[nH]1 [Compound 1045, N'-N"-bis-[2-(5'-chloro-6'-sulfamylbenzimidazole)]-2,9-diazadecane diimidamide dihydrochloride]	8	–	–	–
Cc1ccc2nc(NC(=N)NCCCCCNC(=N)Nc3nc4ccc(C)cc4[nH]3)[nH]c2c1 [Compound 1074, N'-N"-bis-[2-(6-methylbenzimidazole)]-2,8-diazanonane diimidamide dihydrochloride hemipentahydrate]	4	8	8	MIC (Candida albicans): 16 µg/mL
N=C(NCCNC(=N)Nc1nc2ccccc2[nH]1)Nc1nc2ccccc2[nH]1 [Compound 1069, N'-N"-bis[2-benzimidazole]-2,5-diazahexane diimidamide dihydrochloride]	32	–	–	–
Cc1ccc2nc(NC(=N)NCCNC(=N)Nc3nc4ccc(C)cc4[nH]3)[nH]c2c1 [Compound 1072, N'-N"-bis-[2-(6-methylbenzimidazole)]-2,5-diazahexane diimidamide dihydrochloride monohydrate]	4	16	16	–
N=C(NCCCCCCCNC(=N)Nc1nc2ccccc2[nH]1)Nc1nc2ccccc2[nH]1 [Compound 1046, N'-N"-bis-[2-benzimidazole]-2,10-diazaundecane diimidamide dihydrochloride]	8	8	–	MIC (Candida albicans): 16 µg/mL
N=C(NCCCCCCNC(=N)Nc1nc2ccccc2[nH]1)Nc1nc2ccccc2[nH]1 [Compound 1024, N'-N"-bis-[2-benzimidazole]-2,9-diazadecane diimidamide dihydrochloride]	4	4	16	LD50 [1]: 4000 mg/kg; MIC (Streptococcus pyogenes): 1 µg/mL; MIC (Salmonella typhosa): 4 µg/mL; MIC (Klebsiella pneumonia): 500 µg/mL; MIC (Diplococcus pneumoniae): 2 µg/mL
Cc1ccc2nc(NC(=N)NCCCCCCNC(=N)Nc3nc4ccc(C)cc4[nH]3)[nH]c2c1 [Compound 1081, N'-N"-bis-[2-(6-methyl-benzimidazole)]-2,9-diazadecane diimidamide dihydrochloride dihydrate]	1	1	8	MIC (Candida albicans): 8 µg/mL
N=C(NCCCCCCCCNC(=N)Nc1nc2ccccc2[nH]1)Nc1nc2ccccc2[nH]1 [Compound 1080, N'-N"-bis-[2-benzimidazole]-2,11-diazadodecane diimidamide dihydrochloride dihydrate]	1	1	–	–
N=C(NCCNC(=N)Nc1nc2ccc(Cl)cc2[nH]1)Nc1nc2ccc(Cl)cc2[nH]1 [Compound 1105, N'-N"-bis-[2-(6-chlorobenzimidazole)]-2,5-diazahexanediimidamide dihydrochloride sesquihydrate]	–	5	–	–
N=C(NCCCCCNC(=N)Nc1nc2ccccc2[nH]1)Nc1nc2ccccc2[nH]1 [Compound 1079, N'-N"-bis-[2-benzimidazole]-2,8-diazanonane diimidamide dihydrochloride dihydrate]	8	8	–	–
